Reference: article PMC11892739, “Site-specific molecular glues for the 14-3-3/Tau pS214 protein–protein interaction via reversible covalent imine tethering” (RSC Medicinal Chemistry, 2025)

Molecular target: T1, 14-3-3ζ/RND3 peptide (Homo sapiens, UniProt P63104)
T1 construct: made in house; host or cells: NiCo21 (DE3) E. coli
Test: FA peptide screen, 14-3-3ζ titration to client peptide and compound: RND3
Format: binding
Conditions: 250 μM compound, 100 nM peptide; +1 Cys
Experimental: Since the hub protein 14-3-3 binds to hundreds of phosphoprotein partners, selectivity of PPI stabilization is a major challenge. The interplay of chemical reactivity, and the topology and functionality of the composite binding pocket shaped by 14-3-3 and Tau potentially provide entries towards selective stabilization. […] Here, 14-3-3ζ was titrated to a constant concentration of client peptide (100 nM) and compound (250 μM) to determine the SF250μM values for the particular 14-3-3 PPI. A variety of 14-3-3 binding proteins was represented in this client panel whereby the size and hydrophobicity of the +1 amino acid were varied. […]
chromatography (HisTrap high performance cartridges, Cytiva). Typically two 5 mL columns were used for a 2 L culture in which the lysate was loaded on the column, washed with 10 CV wash buffer (50 mM Hepes, pH 8.0, 300 mM NaCl, 25 mM imidazole, 2 mM βME), and eluted with several fractions (2-4 CV) of elution buffer (50 mM Hepes, pH 8.0, 300 mM NaCl, 250 mM imidazole, 2 mM βME). […] Dialyzed protein was concentrated to ∼40 mg/mL, analyzed by Q -Tof LC/MS, and aliquots were flash -frozen for storage at −80 °C. […] Fractions containing the 14 -3-3 protein were pooled and concentrated to ∼60 mg/mL, analyzed Q -Tof LC/MS, and aliquots were flash -frozen for storage at −80°C.
Fluorescence Anisotropy – compound titration […]

T1 sequence (P63104 whole entry, other chains not shown): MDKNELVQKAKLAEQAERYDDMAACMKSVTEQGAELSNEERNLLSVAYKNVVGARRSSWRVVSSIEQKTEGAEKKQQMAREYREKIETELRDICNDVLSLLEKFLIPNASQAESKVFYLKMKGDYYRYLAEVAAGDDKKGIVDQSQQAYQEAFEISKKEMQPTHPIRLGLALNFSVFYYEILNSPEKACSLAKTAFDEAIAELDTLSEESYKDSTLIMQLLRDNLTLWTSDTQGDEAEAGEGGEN

For CCc1ccc(-c2nccn2-c2ccc(C=O)c(Br)c2)cc1 [Compound 18], which “stabilization of 14-3-3/RND3 peptide (in words)” value is on record?
The value was “did not show significant stabilizing activity”.
